This experiment concerns the target HLA B*1501 (Homo sapiens, UniProt P01889, A329T/A93T/A95T/C349S/D201E/D98Y/E187L/E204Q/E69M/E70A/K202T/N87E/Q94N/R155S/R180W/S121R/S35A/S48A/V306I/V36M/Y140S/Y91S). Nature of the experiment: biochemical. In kind it is binding.

The structures appear in SMILES notation. Where a SMILES comes first, the peptide text is derived from it.

For orientation: IC50 means the concentration that gives 50% inhibition.

`CC[C@H](C)[C@H](NC(=O)[C@H](CC(N)=O)NC(=O)[C@H](C)NC(=O)[C@@H](NC(=O)[C@@H](N)CC(C)C)[C@@H](C)CC)C(=O)N[C@@H](Cc1c[nH]cn1)C(=O)N[C@@H](CC(N)=O)C(=O)N[C@@H](Cc1c[nH]cn1)C(=O)N[C@@H](CCSC)C(=O)O` [3102.1046] (H-LIANIHNHM-OH) gave an IC50 of 0.67 nM.
As to `CC[C@H](C)[C@H](NC(=O)[C@H](Cc1ccc(O)cc1)NC(=O)[C@H](CCSC)NC(=O)[C@@H](N)CC(C)C)C(=O)N[C@@H](CC(C)C)C(=O)NCC(=O)N[C@H](C(=O)N[C@@H](Cc1ccc(O)cc1)C(=O)NCC(=O)O)[C@@H](C)O` [3102.0828] (H-LMYILGTYG-OH), the IC50 was 62 nM.
`CSCC[C@H](NC(=O)[C@H](CO)NC(=O)[C@@H](NC(=O)[C@H](CC(C)C)NC(=O)[C@H](CCCCN)NC(=O)[C@H](CO)NC(=O)[C@@H](N)Cc1ccc(O)cc1)[C@@H](C)O)C(=O)N[C@@H](Cc1c[nH]cn1)C(=O)N[C@@H](Cc1ccccc1)C(=O)O` [3102.0944] (H-YSKLTSMHF-OH) registered an IC50 of 0.57 nM.
The result for `CC[C@H](C)[C@H](NC(=O)[C@H](CCC(=O)O)NC(=O)[C@H](CS)NC(=O)[C@H](CCCNC(=N)N)NC(=O)[C@@H](NC(=O)[C@@H](N)CCCCN)[C@@H](C)CC)C(=O)N[C@H](C(=O)N[C@@H](CO)C(=O)N[C@@H](Cc1ccccc1)C(=O)O)[C@@H](C)O` [3102.0909] (H-KIRCEITSF-OH) reads 4.3 nM; that for `CC[C@H](C)[C@H](NC(=O)[C@H](C)NC(=O)[C@@H](N)Cc1ccccc1)C(=O)N[C@@H](CO)C(=O)N[C@@H](Cc1ccc(O)cc1)C(=O)N[C@@H](CS)C(=O)N[C@@H](CCCNC(=N)N)C(=O)N[C@@H](C)C(=O)N[C@@H](Cc1ccccc1)C(=O)O` [3102.0920] (H-FAISYCRAF-OH), 76 nM; that for `CSCC[C@H](N)C(=O)N[C@@H](Cc1ccc(O)cc1)C(=O)N[C@@H](CCCCN)C(=O)N[C@@H](CCCCN)C(=O)N[C@@H](C)C(=O)N[C@@H](CCC(=O)O)C(=O)N[C@@H](C)C(=O)N[C@@H](CO)C(=O)N[C@@H](Cc1ccccc1)C(=O)O` [3102.0906] (H-MYKKAEASF-OH), 69 nM.
In the case of `CC[C@H](C)[C@H](NC(=O)CNC(=O)[C@@H](NC(=O)[C@H](CCCCN)NC(=O)[C@@H](NC(=O)[C@@H](N)CCC(=O)O)[C@@H](C)CC)[C@@H](C)O)C(=O)N[C@@H](CO)C(=O)N[C@@H](CO)C(=O)N[C@@H](Cc1ccccc1)C(=O)O` [3102.0969] (H-EIKTGISSF-OH) it was 90 nM; in that of `CC[C@H](C)[C@H](NC(=O)[C@@H](N)Cc1ccccc1)C(=O)N[C@@H](CC(N)=O)C(=O)N[C@@H](CCSC)C(=O)N[C@H](C(=O)NCC(=O)N[C@@H](CC(N)=O)C(=O)N[C@@H](Cc1c[nH]cn1)C(=O)N[C@@H](Cc1ccccc1)C(=O)O)[C@@H](C)O` [3102.1288] (H-FINMTGNHF-OH), 16 nM; in that of `CSCC[C@H](NC(=O)[C@@H](N)C(C)C)C(=O)N[C@H](C(=O)N[C@@H](CCCCN)C(=O)N[C@@H](Cc1c[nH]c2ccccc12)C(=O)N[C@@H](CS)C(=O)N[C@@H](C)C(=O)N1CCC[C@H]1C(=O)N[C@@H](Cc1ccccc1)C(=O)O)[C@@H](C)O` [3102.0886] (H-VMTKWCAPF-OH), 1.9 nM.
Turning to `CC[C@H](C)[C@H](NC(=O)[C@@H](N)CO)C(=O)N[C@@H](CS)C(=O)N[C@@H](CO)C(=O)N[C@@H](CCCCN)C(=O)N[C@@H](CO)C(=O)N[C@@H](CC(N)=O)C(=O)N1CCC[C@H]1C(=O)N[C@@H](Cc1ccccc1)C(=O)O` [3102.0855] (H-SICSKSNPF-OH), half-maximal inhibition (IC50) required 39 nM.
The result for `CC[C@H](C)[C@H](NC(=O)[C@H](CO)NC(=O)[C@@H](N)CCSC)C(=O)N[C@@H](CC(=O)O)C(=O)N[C@@H](Cc1c[nH]cn1)C(=O)N[C@@H](CS)C(=O)N[C@@H](CO)C(=O)N[C@@H](CO)C(=O)N[C@@H](Cc1ccccc1)C(=O)O` [3102.0989] (H-MSIDHCSSF-OH) reads 0.95 nM.
The result for `CSCC[C@H](N)C(=O)N[C@@H](CC(C)C)C(=O)N[C@@H](CC(N)=O)C(=O)N[C@H](C(=O)N[C@@H](Cc1ccc(O)cc1)C(=O)NCC(=O)N[C@@H](CCC(=O)O)C(=O)NCC(=O)N[C@@H](Cc1ccccc1)C(=O)O)[C@@H](C)O` [3102.0822] (H-MLNTYGEGF-OH) reads 2.3 nM.
The result for `CC[C@H](C)[C@H](NC(=O)[C@H](CC(C)C)NC(=O)[C@@H](N)CO)C(=O)N[C@@H](Cc1ccc(O)cc1)C(=O)N[C@@H](CC(C)C)C(=O)N[C@@H](CS)C(=O)N[C@H](C(=O)N[C@@H](Cc1ccccc1)C(=O)N[C@@H](CCSC)C(=O)O)[C@@H](C)O` [3102.1017] (H-SLIYLCTFM-OH) reads 4.5 nM; that for `CC(C)C[C@H](NC(=O)[C@@H]1CCCN1C(=O)[C@H](CCCNC(=N)N)NC(=O)[C@H](Cc1ccc(O)cc1)NC(=O)[C@H](Cc1ccccc1)NC(=O)[C@@H](NC(=O)CN)C(C)C)C(=O)N[C@@H](Cc1c[nH]cn1)C(=O)N[C@@H](Cc1ccccc1)C(=O)O` [3102.0847] (H-GVFYRPLHF-OH), 5.5 nM; that for `CC[C@H](C)[C@H](NC(=O)[C@H](C)NC(=O)[C@H](CCSC)NC(=O)[C@@H](NC(=O)[C@@H](NC(=O)[C@@H](N)C(C)C)[C@@H](C)CC)[C@@H](C)CC)C(=O)N[C@@H](CC(N)=O)C(=O)N[C@H](C(=O)N[C@@H](Cc1ccccc1)C(=O)O)C(C)C` [3102.1303] (H-VIIMAINVF-OH), 26 nM.
In turn, `CC[C@H](C)[C@H](N)C(=O)N[C@H](C(=O)N[C@H](C(=O)N1CCC[C@H]1C(=O)N[C@@H](Cc1ccccc1)C(=O)N[C@H](C(=O)N[C@@H](C)C(=O)N[C@@H](Cc1ccc(O)cc1)C(=O)N[C@@H](Cc1ccccc1)C(=O)O)[C@@H](C)CC)[C@@H](C)CC)[C@@H](C)CC` [3102.0892] (H-IIIPFIAYF-OH) had an IC50 of 1.6 nM.
In the case of `CSCC[C@H](NC(=O)[C@@H](N)CCCNC(=N)N)C(=O)N[C@@H](Cc1ccccc1)C(=O)N[C@@H](Cc1c[nH]cn1)C(=O)N[C@@H](Cc1ccccc1)C(=O)N[C@@H](Cc1ccccc1)C(=O)N[C@@H](CCC(=O)O)C(=O)N[C@@H](Cc1c[nH]cn1)C(=O)N[C@@H](CCC(=O)O)C(=O)O` [3102.0915] (H-RMFHFFEHE-OH) it was 67 nM.
In the case of `CC[C@H](C)[C@H](NC(=O)[C@H](CO)NC(=O)[C@@H](N)CC(C)C)C(=O)N[C@@H](Cc1ccccc1)C(=O)N[C@@H](Cc1ccccc1)C(=O)N[C@H](C(=O)N[C@H](C(=O)N[C@H](C(=O)N[C@@H](C)C(=O)O)C(C)C)C(C)C)[C@@H](C)CC` [3102.1004] (H-LSIFFIVVA-OH) it was 82 nM; in that of `CSCC[C@H](NC(=O)[C@H](CCCCN)NC(=O)[C@H](CCCCN)NC(=O)[C@H](Cc1ccc(O)cc1)NC(=O)[C@@H](NC(=O)[C@@H](N)CC(C)C)C(C)C)C(=O)N[C@@H](CCC(N)=O)C(=O)N[C@@H](CO)C(=O)N[C@@H](Cc1ccc(O)cc1)C(=O)O` [3102.0856] (H-LVYKKMQSY-OH), 46 nM; in that of `CC[C@H](C)[C@H](NC(=O)[C@@H](N)CC(C)C)C(=O)N[C@@H](CC(N)=O)C(=O)N[C@@H](CC(N)=O)C(=O)NCC(=O)N[C@@H](CCCCN)C(=O)N[C@@H](CS)C(=O)N[C@H](C(=O)N[C@@H](Cc1ccccc1)C(=O)O)[C@@H](C)O` [3102.0899] (H-LINNGKCTF-OH), 62 nM.
The result for `CSCC[C@H](NC(=O)[C@H](Cc1c[nH]cn1)NC(=O)[C@H](CCCCN)NC(=O)[C@H](CC(N)=O)NC(=O)[C@@H](NC(=O)[C@@H](N)CC(N)=O)[C@@H](C)O)C(=O)N[C@@H](CC(C)C)C(=O)N[C@@H](CCC(=O)O)C(=O)N[C@@H](Cc1ccccc1)C(=O)O` [3102.1027] (H-NTNKHMLEF-OH) reads 12 nM; that for `CC(C)C[C@H](NC(=O)[C@H](CC(N)=O)NC(=O)[C@H](C)NC(=O)[C@H](CO)NC(=O)[C@@H](N)CC(C)C)C(=O)N[C@@H](Cc1ccccc1)C(=O)N[C@@H](CCC(=O)O)C(=O)N[C@@H](CO)C(=O)N[C@@H](CCC(N)=O)C(=O)O` [3102.0959] (H-LSANLFESQ-OH), 45 nM; that for `CC[C@H](C)[C@H](NC(=O)[C@@H]1CCCN1C(=O)[C@H](CCC(=O)O)NC(=O)[C@H](CC(N)=O)NC(=O)[C@H](CO)NC(=O)[C@H](CC(=O)O)NC(=O)[C@H](Cc1ccccc1)NC(=O)[C@H](CC(C)C)NC(=O)[C@@H](N)CC(C)C)C(=O)O` [3102.0916] (H-LLFDSNEPI-OH), 16 nM.
As to `CC[C@H](C)[C@H](NC(=O)[C@H](CCCNC(=N)N)NC(=O)[C@H](Cc1ccc(O)cc1)NC(=O)[C@H](CCC(N)=O)NC(=O)[C@@H](NC(=O)[C@@H](N)CC(C)C)C(C)C)C(=O)N[C@@H](CC(C)C)C(=O)N1CCC[C@H]1C(=O)N[C@@H](CCSC)C(=O)O` [3102.0954] (H-LVQYRILPM-OH), half-maximal inhibition (IC50) was put at 63 nM.
The result for `CC[C@H](C)[C@H](NC(=O)[C@H](Cc1c[nH]cn1)NC(=O)[C@H](CC(=O)O)NC(=O)[C@H](Cc1c[nH]cn1)NC(=O)[C@H](CO)NC(=O)[C@@H](N)Cc1ccccc1)C(=O)NCC(=O)N[C@@H](Cc1c[nH]cn1)C(=O)NCC(=O)O` [3102.0897] (H-FSHDHIGHG-OH) reads 32 nM; that for `CC[C@H](C)[C@H](NC(=O)[C@H](Cc1ccccc1)NC(=O)[C@@H](N)Cc1ccc(O)cc1)C(=O)N[C@@H](CCCCN)C(=O)N[C@@H](Cc1c[nH]cn1)C(=O)N[C@H](C(=O)N[C@@H](CC(C)C)C(=O)N[C@@H](C)C(=O)N[C@@H](Cc1ccccc1)C(=O)O)C(C)C` [3102.0907] (H-YFIKHVLAF-OH), 2.5 nM.
The result for `CC[C@H](C)[C@H](NC(=O)[C@H](CCC(N)=O)NC(=O)[C@H](CCCNC(=N)N)NC(=O)[C@H](CC(C)C)NC(=O)[C@@H](N)CCCCN)C(=O)N[C@H](C(=O)N[C@@H](C)C(=O)N[C@@H](Cc1ccc(O)cc1)C(=O)N[C@@H](Cc1ccccc1)C(=O)O)C(C)C` [3102.0815] (H-KLRQIVAYF-OH) reads 7.6 nM; that for `CC(C)C[C@H](N)C(=O)NCC(=O)N[C@@H](Cc1ccccc1)C(=O)N[C@@H](CC(=O)O)C(=O)N[C@H](C(=O)N[C@H](C(=O)N[C@@H](C)C(=O)N[C@@H](Cc1ccc(O)cc1)C(=O)N[C@@H](Cc1ccccc1)C(=O)O)C(C)C)C(C)C` [3102.0790] (H-LGFDVVAYF-OH), 67 nM.

Values taken from publication PMC2248166, “Quantitative peptide binding motifs for 19 human and mouse MHC class I molecules derived using positional scanning combinatorial peptide libraries” (Immunome Research, 2008).
